From ChEMBL document CHEMBL5143589, “Drugging the Next Undruggable KRAS Allele-Gly12Asp” (J Med Chem, 2022)

Tests used:
[1] = Inhibition of KRAS […] mutant (unknown origin) by HTRF assay; design: species or system Homo sapiens
[2] = Binding affinity to KRAS […] mutant (unknown origin) assessed as dissociation constant; design: species or system Homo sapiens
[3] = molecular target: T1, GTPase KRas (Homo sapiens, UniProt P01116)
Target sequence in this assay (P01116 whole entry, looked up): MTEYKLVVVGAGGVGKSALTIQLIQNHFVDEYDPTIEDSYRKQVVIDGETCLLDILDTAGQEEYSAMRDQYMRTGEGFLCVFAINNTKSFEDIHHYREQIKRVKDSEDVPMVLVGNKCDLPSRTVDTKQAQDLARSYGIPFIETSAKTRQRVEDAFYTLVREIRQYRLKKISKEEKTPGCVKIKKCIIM
Description: Binding affinity to KRAS (unknown origin) assessed as inactivation constant

[4] = molecular target: T1, GTPase KRas; test: Binding affinity to KRAS (unknown origin) assessed as inhibition constant
Target sequence in this assay (P01116 whole entry): as the sequence (P01116 whole entry, looked up) above

[5] = Inhibition of ERK phosphorylation in human AGS cells; type: cell-based
[6] = tested on: MKN-1; test: Antiproliferative activity against human MKN-1 cells assessed as reduction of cell viability; type: functional, cell-based
[7] = tested on: AGS; test: Antiproliferative activity against human AGS cells assessed as reduction of cell viability; type: functional, cell-based

Kd [2] [nM]	Compound	IC50 [1] [nM]	other results
–	C#Cc1c(F)ccc2cccc(-c3ncc4c(N5CC6CCC(C5)N6)nc(OCC56CCCN5CCC6)nc4c3F)c12	≤ 2	–
–	Oc1cc(-c2ncc3c(N4CC5CCC(C4)N5)nc(OC[C@@]45CCCN4C[C@H](F)C5)nc3c2F)c2ccccc2c1	≤ 2	–
3500	CN1CCC[C@H]1COc1nc(N2CCNCC2)c2cnc(-c3cccc4cccc(Cl)c34)c(F)c2n1	–	–
–	C=CC(=O)N1CCN(c2ncnc3c(F)c(-c4c(O)cccc4F)c(Cl)cc23)CC1	–	Kinact [3]: 0.03 s⁻¹; Ki [4]: 31000 nM
0.0002	C#Cc1c(F)ccc2cc(O)cc(-c3ncc4c(N5CC6CCC(C5)N6)nc(OC[C@@]56CCCN5C[C@H](F)C6)nc4c3F)c12 [MRTX-1133]	–	IC50 [5]: 2 nM; IC50 [6]: > 3000 nM; IC50 [7]: 6 nM

Compound	Kd [2] [nM]	IC50 [1] [nM]	other results
CN1CCC[C@H]1COc1nc(N2CC3CCC(C2)N3)c2cnc(-c3cc(O)cc4ccccc34)c(F)c2n1	0.8	5	–
